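The concentration for 50% growth inhibition is given as GI50. At the TGI there is no net growth.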
Tests used:
Experiment in all cases: DTP human tumour cell line panel, 384-well format
[1] = system: UACC-257 melanoma
[2] = system: SK-OV-3 ovarian
[3] = system: A498 renal
[4] = system: OVCAR-3 ovarian
[5] = system: SK-MEL-28 melanoma
[6] = system: IGROV1 ovarian
[7] = system: T-47D breast
[8] = system: HT29 colon
[9] = system: TK-10 renal
[10] = system: HCT-15 colon
[11] = system: OVCAR-5 ovarian
[12] = system: NCI-H322M lung
[13] = system: MDA-MB-468 breast

| SMILES | GI50 [1] [µM] | TGI [1] [µM] | GI50 [2] [µM] | TGI [2] [µM] | GI50 [3] [µM] | TGI [3] [µM] | GI50 [4] [µM] | TGI [4] [µM] | GI50 [5] [µM] | TGI [5] [µM] | GI50 [6] [µM] | TGI [6] [µM] | GI50 [7] [µM] | TGI [7] [µM] | GI50 [8] [µM] | TGI [8] [µM] | GI50 [9] [µM] | TGI [9] [µM] | GI50 [10] [µM] | TGI [10] [µM] | further results |
| --- | --- | --- | --- | --- | --- | --- | --- | --- | --- | --- | --- | --- | --- | --- | --- | --- | --- | --- | --- | --- | --- |
| CS(=O)(=O)c1ccc(Oc2cc(F)cc(C#N)c2)c2c1[C@H](O)C(F)(F)C2 | > 100 | > 100 | > 100 | > 100 | > 100 | > 100 | > 100 | > 100 | > 100 | > 100 | > 100 | > 100 | > 100 | > 100 | > 100 | > 100 | > 100 | > 100 | > 100 | > 100 | GI50 [11]: > 100 µM; TGI [11]: > 100 µM; GI50 [12]: > 100 µM; TGI [12]: > 100 µM; GI50 [13]: > 100 µM; TGI [13]: > 100 µM |
| CC(C)n1c(=O)n(C)c2cnc3cc(F)c(-c4ccc(OCCCN5CCCCC5)nc4)cc3c21 | 36.3 | > 100 | > 62.5 | > 100 | > 73.4 | > 100 | 38.9 | > 100 | > 100 | > 100 | > 100 | > 100 | > 48.5 | > 100 | 22.3 | > 87.2 | 51.7 | > 100 | 52.3 | > 100 | GI50 [11]: > 100 µM; TGI [11]: > 100 µM; GI50 [12]: > 100 µM; TGI [12]: > 100 µM; GI50 [13]: 24.8 µM; TGI [13]: > 100 µM |
